The source of these data is US20120129897A1, “BIS HETEROARYL INHIBITORS OF PRO-MATRIX METALLOPROTEINASE ACTIVATION” (priority 2010, published 2012).

SMILES strings stand for the structures.

Assay [1] deals with female Lewis rats with SCW-induced arthritis. Description: Efficacy in rats with SCW-induced arthritis (ankle thickness, clinical scores). The following applies: 5, 20, 50 mg/kg BID oral, Day 18-26. In kind it is in vivo, rat. The text has this: A polyarthritis can be induced in female Lewis rats following i.p. administration of streptococcal cell wall (SCW) […] (PG-PS) (J Exp Med 1977; 146:1585-1602). The model has an acute phase (days 3-7) that is complement and neutrophil-dependent and that resolves. A chronic erosive phase begins at about day ten and is dependent on the development of specific T cell immunity to the PG-GS, which resists digestion and remains present in synovial macrophages for months. Like rheumatoid arthritis, SCW-induced arthritis is reduced by TNF inhibitors, and the dependence of SCW-induced arthritis on macrophages (Rheumatology; 2001; 40:978-987) and the strong association of rheumatoid arthritis severity with synovial-tissue macrophage counts (Ann Rheum Dis; 2005; 64:834-838) makes SCW-arthritis an attractive model for testing potential therapeutic agents. SCW PG-PS 10S (Beckton Dickinson Cat#210866) suspended in saline was vortexed for 30 seconds and sonicated for 3 min with a probe type sonicator prior to injection. […]
To induce arthritis, Female Lewis (LEW/N) rats, 5-6 weeks of age (80-100 g) were injected (i.p.) with SCW PG-PS as described above. […] Each ankle was measured 3 times and averaged, and treatment groups were randomized based on ankle thickness (Table 6). […]

Assay [2] addresses T1, proMMP9 (Rattus norvegicus, UniProt P50282).
T1 construct: endogenous in cells; host or cells: primary synoviocytes from arthritic female Lewis rats
Nature of the assay: Activation of proMMP9 in rat synoviocyte cultures (Western blot). In kind it is cell-based. The following applies: for Signal of 80 kD band (INT*mm^2): final 48 hrs, TNFα-stimulated, pAb-1246; for 80 kD active MMP9 form detected with mAb L51/82 / 80 kD active MMP9 detected with pAb-1246: 0.37-10 μM; for 80 kD active MMP9 form detected with mAb L51/82: FIG. 1A; for 80 kD active MMP9 detected with pAb-1246: FIG. 1B. The text has this:
A primary synoviocytes line was derived from the periarticular tissue of arthritic rats. Arthritis was induced in female Lewis rats following an i.p. administration of streptococcal cell wall peptidoglycan polysaccharides (J Exp Med 1977; 146:1585-1602). Rats with established arthritis were sacrificed, and hind-limbs were severed, immersed briefly in 70% ethanol, and placed in a sterile hood. The skin was removed and the inflamed tissue surrounding the tibia-tarsal joint was harvested using a scalpel. Tissue from six rats was pooled, minced to approximately 8 mm^3 pieces, and cultured in Dulbecco's Modified Eagle's Medium (DMEM) containing 15% fetal calf serum (FCS). In the following weeks, cells migrated out of the tissue piece, proliferated, and formed a monolayer of adherent cells. The synoviocytes were lifted from culture plates with 0.05% trypsin and passaged weekly at 1:4 ratios in DMEM containing 10% FCS. Synoviocytes were used at passage 9 to investigate the ability of Compound-α to inhibit the maturation of MMP9 to active form.
Rat synoviocytes spontaneously expressed and activated MMP9 when cultured in collagen gels and stimulated with tumor necrosis factor-alpha (TNFα) (FIG. 1 and Table 3). Eight volumes of an ice-cold solution of 3.8 mg/mL rat tail collagen (Sigma Cat #C3867-1VL) were mixed with 1 volume of 1 M sodium bicarbonate and 1 volume of 10× Roswell Park Memorial Institute medium. The pH of the mixture was adjusted to pH 7 with 1 N sodium hydroxide and equal volumes of the pH-adjusted collagen solution were mixed with DMEM containing 0.8 million synoviocytes per mL. One half mL volumes were dispensed into Costar 24-well culture dishes and placed for one hr at 37° C. and 5% CO2, during which time the collagen solution formed a gel. Individual gels were dislodged into wells of 12-well Costar plates containing 1 mL/well of DMEM adjusted to contain 0.05% BSA and 100 ng/mL mouse TNFα (R&D Systems Cat #410-MT-010). […] After overnight culture at 37° C. and 5% CO2, wells were adjusted to contain an additional 0.5 mL of DMEM containing 0.05% BSA and Compound-α at 4× the final desired concentration (final culture volumes were 2 mL). The plates were cultured an additional 48 hrs, at which time 1 mL of conditioned media were harvested into fresh eppendorf tubes containing 40 μL/mL of a 50% slurry of gelatin-conjugated sepharose (GE Healthcare Cat #17-0956-01). Samples were rotated for 2 hrs at 4° C. before centrifugation 1 min×200 g. Supernatants were discarded. The gelatin-sepharose pellets were washed once with 1 mL of ice cold DMEM, resuspended in 50 μL of 2× reducing Leamli buffer and heated 5 min at 95° C. Fifteen μL of eluted proteins were resolved on 4-12% NuPAGE gels and transferred to 0.45 μm pore-sized nitrocellose blots. Next, blots were incubated in blocking buffer (5% milk in Tris-buffered saline containing 0.1% Tween-20) for 1 hr at RT and probed overnight (4° C.) with blocking buffer containing 1 μg/mL primary antibodies. Blots were next probed 1 hr at RT with 1/10,000 dilutions of goat anti-mouse IgG-HRP or goat anti-rabbit IgG-HRP (Santa Cruz) in blocking buffer and developed using SuperSignal® West Fempto Maximum Sensitivity Substrate. Chemiluminesence signal was analyzed using a ChemiDoc imaging system (BioRad Laboratories) and Quantity One® image software. Electrophoretic mobility was estimated based on the mobility of standards (Novex Sharp Pre-Stained Protein Standards P/N 57318).
Mouse mAb-L51/82 (UC Davis/NIH NeuroMab Facility, Antibody Incorporated) was used to detect pro and processed forms of MMP9. Synoviocyte-conditioned media contained an approximately 80 kD form of MMP9 (FIG. 1A, lane 2). […] The 86 kD form was predominant in the presence of 10 μM Compound-α (FIG. 1A, lane 6). Lane 1 was loaded with a standard containing 3 ng of full-length rat proMMP9(1-708) (SEQ ID NO:11) and 3 ng of full-length rat proMMP9(1-708) (SEQ ID NO:11) converted to catalytic rat MMP9 by catalytic MMP3. […]

T1 sequence (P50282 20-708 limits assumed): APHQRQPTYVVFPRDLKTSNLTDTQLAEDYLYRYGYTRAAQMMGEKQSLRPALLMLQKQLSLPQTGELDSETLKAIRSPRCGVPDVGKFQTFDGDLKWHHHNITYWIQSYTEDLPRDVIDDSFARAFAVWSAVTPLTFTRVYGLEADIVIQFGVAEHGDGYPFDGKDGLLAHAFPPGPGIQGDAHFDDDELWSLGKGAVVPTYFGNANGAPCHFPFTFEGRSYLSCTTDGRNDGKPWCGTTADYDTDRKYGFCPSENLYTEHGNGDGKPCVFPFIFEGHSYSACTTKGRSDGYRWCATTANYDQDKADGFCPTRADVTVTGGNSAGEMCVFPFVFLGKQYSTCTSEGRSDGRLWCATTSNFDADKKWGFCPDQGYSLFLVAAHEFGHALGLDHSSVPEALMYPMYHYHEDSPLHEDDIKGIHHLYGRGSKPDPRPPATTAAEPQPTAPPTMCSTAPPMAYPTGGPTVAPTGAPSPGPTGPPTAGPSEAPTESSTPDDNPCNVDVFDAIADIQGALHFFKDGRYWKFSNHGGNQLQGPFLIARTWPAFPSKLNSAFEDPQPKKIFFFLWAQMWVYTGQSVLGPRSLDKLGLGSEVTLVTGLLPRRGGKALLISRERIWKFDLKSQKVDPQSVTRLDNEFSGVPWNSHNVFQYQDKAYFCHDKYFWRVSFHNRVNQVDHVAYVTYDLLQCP

On to `Cc1nc(C)c(-c2csc(Nc3cc(S(N)(=O)=O)ccc3OC(C)C)n2)s1` [Compound-α, 3-(2′,4′-Dimethyl-[4,5′]bithiazolyl-2-ylamino)-4-isopropoxy-benzenesulfonamide.HBr], for which, in assay [1], the “Ankle thickness measurements, effect of treatment” value is reported as “dose-dependent decrease in ankle thickness measurements”. In assay [1], the “Clinical score measurements, effect of treatment” value is “dose dependent decrease in clinical score measurements”. For the same molecule, the “Signal of 80 kD band (INT*mm^2)” value was determined as 74381 INT*mm^2 in assay [2] (0.37 μM), 45381 INT*mm^2 in assay [2] (1.1 μM), 11554 INT*mm^2 in assay [2] (3.3 μM) and 2578 INT*mm^2 in assay [2] (10 μM). Further, the “80 kD active MMP9 form detected with mAb L51/82” value in assay [2] is recorded as “reduced in a dose dependent fashion”; in assay [2] (listed as Compound a) it was “dose-dependent reduction in the appearance of the 80 kD active form of MMP9”. The “80 kD active MMP9 detected with pAb-1246” value is listed as “dose-dependent reduction in active MMP9” in assay [2] and “dose-dependent reduction in the appearance of the 80 kD active form of MMP9” in assay [2] (listed as Compound α).
